Measured values as given in patent publication US10253081B2, “Glucagon analogues” (Zealand Pharma A/S, priority 2012, dated 2019).
*1 amine or outer side, *2 acyl side, *3 side chain or, on linkers, in order; H or OH if unused. Where a SMILES comes first, the peptide text is derived from it. Side-chain parts run from the residue outwards. [ ]: non-standard residue; d: D form. The star is where a group is joined. γGlu = O=C(O)[C@H](CCC(=O)[*:2])N[*:1]; Palmitoyl = CCCCCCCCCCCCCCCC(=O)*; Aib = CC(C)(N)C(=O)O

Columns and labels:
[1] = molecular target: T1, endogenous GLP-1 receptors (Mus musculus, UniProt O35659); assay: Agonistic activity on endogenous GLP-1 receptor (cAMP, murine insulinoma cell line); assay type: cell-based; details: intracellular cAMP, 15 minutes at 26° C.; read-out: EC50 GLP-1R (murine insulinoma cells)
T1 construct: Agonistic activity of the test compounds on endogenous GLP-1 receptors; endogenous in cells
T1 sequence (O35659 22-463): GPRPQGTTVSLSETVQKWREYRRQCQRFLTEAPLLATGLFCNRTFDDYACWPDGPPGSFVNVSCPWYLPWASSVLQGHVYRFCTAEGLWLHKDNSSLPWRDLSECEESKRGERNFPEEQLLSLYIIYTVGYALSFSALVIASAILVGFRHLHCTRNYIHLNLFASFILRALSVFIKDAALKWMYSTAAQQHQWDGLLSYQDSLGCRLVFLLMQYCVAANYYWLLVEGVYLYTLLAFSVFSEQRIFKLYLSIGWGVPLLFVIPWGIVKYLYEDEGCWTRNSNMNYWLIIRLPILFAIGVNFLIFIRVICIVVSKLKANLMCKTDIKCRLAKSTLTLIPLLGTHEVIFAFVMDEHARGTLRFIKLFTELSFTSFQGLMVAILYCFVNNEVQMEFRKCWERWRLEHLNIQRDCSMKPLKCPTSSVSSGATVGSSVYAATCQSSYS
In short: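 Murine insulinoma cells were exposed 15 min at 26° C in KRBH with 0.1% DMSO to compound or GLP-1 ([…]), then cAMP was measured by AlphaScreen against a standard curve, in quadruplicate. pEC50 came from curve fits; % CTL was normalised to the maximal GLP-1 cAMP response.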

[2] = molecular target: T2, human glucagon receptor (Glucagon-R) (Homo sapiens, UniProt P47871); assay: Glucagon receptor efficacy assay (cAMP AlphaScreen, CHO cells); assay type: cell-based; details: Table 1A; CHO cells expressing human Glucagon-R, cAMP; read-out: EC50 hGCGR CHO-K1
T2 construct: expressed in transfected cells
In short: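 Stably transfected CHO clones expressing human GLP-1R or glucagon receptor were treated with increasing peptide concentrations for 15 min at room temperature in KRBH containing 0.1 mM IBMX. After lysis, cAMP was quantified by AlphaScreen; EC50 and efficacy relative to GLP-1 or glucagon reference came from curve fitting.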

T2 sequence (P47871 26-477): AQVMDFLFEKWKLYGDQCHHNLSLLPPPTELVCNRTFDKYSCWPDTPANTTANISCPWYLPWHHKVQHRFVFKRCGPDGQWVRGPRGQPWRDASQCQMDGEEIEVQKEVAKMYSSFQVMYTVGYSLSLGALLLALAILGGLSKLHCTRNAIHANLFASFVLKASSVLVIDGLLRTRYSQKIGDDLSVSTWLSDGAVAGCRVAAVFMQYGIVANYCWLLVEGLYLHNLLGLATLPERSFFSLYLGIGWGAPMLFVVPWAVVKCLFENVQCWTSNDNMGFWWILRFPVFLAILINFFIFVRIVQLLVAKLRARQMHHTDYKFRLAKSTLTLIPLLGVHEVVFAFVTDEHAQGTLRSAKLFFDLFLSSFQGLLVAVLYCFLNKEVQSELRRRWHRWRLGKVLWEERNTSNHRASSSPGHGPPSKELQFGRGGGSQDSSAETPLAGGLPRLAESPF

CCCCCCCCCCCCCCCC(=O)N[C@@H](CCC(=O)NCCCC[C@H](NC(=O)[C@H](CO)NC(=O)[C@H](CC(=O)O)NC(=O)[C@H](CC(C)C)NC(=O)[C@H](Cc1ccc(O)cc1)NC(=O)[C@H](CCCCN)NC(=O)[C@H](CO)NC(=O)[C@H](Cc1ccc(O)cc1)NC(=O)[C@H](CC(=O)O)NC(=O)[C@H](CO)NC(=O)[C@@H](NC(=O)[C@H](Cc1ccccc1)NC(=O)[C@@H](NC(=O)CNC(=O)[C@H](CCC(N)=O)NC(=O)C(C)(C)NC(=O)[C@@H](N)Cc1c[nH]cn1)[C@@H](C)O)[C@@H](C)O)C(=O)N[C@@H](C)C(=O)N[C@@H](C)C(=O)N[C@@H](CCC(=O)O)C(=O)N[C@@H](CC(=O)O)C(=O)N[C@@H](Cc1ccccc1)C(=O)N[C@H](C(=O)N[C@@H](CCC(=O)O)C(=O)N[C@@H](Cc1c[nH]c2ccccc12)C(=O)N[C@@H](CC(C)C)C(=O)N[C@@H](CCC(=O)O)C(=O)N[C@@H](CO)C(=O)N[C@@H](C)C(N)=O)C(C)C)C(=O)O [Compound 16, H-H-Aib-QGTFTSDYSKYLDS-K(Hexadecanoyl-isoGlu)-AAEDFVEWLESA-NH2] (H-H[Aib]QGTFTSDYSKYLDSK([γGlu-Palmitoyl])AAEDFVEWLESA-NH2) was tested, and the EC50 [1] was 0.33 nM and the EC50 [2] was 1.58 nM.
